Experimental data: patent US11672788B2, “Histone deacetylase inhibitors for immunomodulation in tumor microenvironment” (GREAT NOVEL THERAPEUTICS BIOTECH & MEDICALS CORPORATION, priority 2020, dated 2023)
≈ marks a conversion by molar mass, not a printed value.

Columns and labels:
MDA-MB-453 = experiment: In vitro cytotoxicity MTT assay; assay type: cell-based, human; details: Homo sapiens, MDA-MB-453, 72 h, IC50 ± SD
Method: (§1) Six different cell lines were used, including human breast cancer cell line MDA-MB-231 (6×10^3), MDA-MB-453 (2.4×10^4), SK-BR-3 (6×10^3), human breast epithelial cell line M10 (6×10^3), human gastric carcinoma NCI-N87 (2.4×10^4), and human colorectal adenocarcinoma SW48 (2.4×10^4), and seeded in a 96 well plate. Cell lines were obtained from Bioresource Collection and Research Center, BCRC, Taiwan. […] After 72 h, MTT assay (Cayman™) was used to determine the cellular viability.

MDA-MB-231 = experiment: In vitro cytotoxicity MTT assay; assay type: cell-based, human; details: Homo sapiens, MDA-MB-231, 72 h, IC50 ± SD
Method: as §1

M10 = experiment: In vitro cytotoxicity MTT assay; assay type: cell-based, human; details: Homo sapiens, M10, 72 h, IC50 ± SD
Method: as §1

SW48 = experiment: In vitro cytotoxicity MTT assay; assay type: cell-based, human; details: Homo sapiens, SW48, 72 h, IC50 ± SD
Method: as §1

HDAC3 [1] = biological target: T1, HDAC3 (Homo sapiens (Human), UniProt O15379); experiment: HDAC3 enzymatic kinetic assay; assay type: biochemical; details: 2 μM; 20 min, 40 min and 60 min
Method: (§2) HDAC3 enzymatic kinetic assay was performed according to standard Protocols (Fluorgenic HDAC3 assay kit, BPS Bioscience™). […] After incubation, assay developer was added to the samples and the absorbance was read at fluorogenic wavelength. The relative inhibition to HDAC3 activity in each sample was determined.

Saturation solubility = assay type: physicochemical; details: ddH2O, 25° C., mean ± SD, BDL: Below detection limit
Method: Samples of 5 mg of compounds were added to 5 ml volumetric flasks containing ddH2O and shaken at 100 rpm in an incubator at 25° C. for 90 minutes. The resulting suspension was filtered through a 0.22 μm filter. The concentrations of compounds were determined spectrophotometrically at 256 nm. The saturation solubility of each sample was determined in triplicates and the mean value and standard deviation were reported.

SK-BR-3 = experiment: In vitro cytotoxicity MTT assay; assay type: cell-based; details: Homo sapiens, 72 h, IC50 ± SD
Method: as §1

HDAC3 [2] = biological target: T1, HDAC3; experiment: HDACs 1, 2, and 3 enzymatic inhibition (fluorogenic kit, 1 h); assay type: biochemical; details: 37° C.
Method: as §2, with “HDACs” for “HDAC3 enzymatic kinetic”, “HDACs 1, 2, and 3” for “HDAC3”, “1 h,” for “incubation,”, “HDACs 1, 2, and 3 activities” for “HDAC3 activity”

HDAC2 = HDAC2 (Homo sapiens (Human), UniProt Q92769); experiment: as above; assay type: biochemical; details: 37° C.
Method: as §2, with “HDACs” for “HDAC3 enzymatic kinetic”, “HDACs 1, 2, and 3” for “HDAC3”, “1 h,” for “incubation,”, “HDACs 1, 2, and 3 activities” for “HDAC3 activity”

HDAC1 = HDAC1 (Homo sapiens (Human), UniProt Q13547); experiment: as above; assay type: biochemical; details: 37° C.
Method: as §2, with “HDACs” for “HDAC3 enzymatic kinetic”, “HDACs 1, 2, and 3” for “HDAC3”, “1 h,” for “incubation,”, “HDACs 1, 2, and 3 activities” for “HDAC3 activity”

SW48 cells [3] = experiment: Cell apoptosis (sub-G1) by PI flow cytometry; assay type: cell-based, human; details: 72 h; for Induction of apoptosis: SW48, indicated doses (Table 13)
Method: (§3) A PI/RNase staining assay (BD Bioscience™) was performed to reveal the presence of cell cycle arrest and apoptotic cells after treatment with GNTbm compounds, Chidamide and Entinostat. […] After treatment cells were harvested, fixed with 80% ethanol for 24 h, washed with 1×PBS and stained with PI/RNase for 15 min at room temperature. The cells were then analyzed using Flow Cytometer within 1 h.

[4] = system: histone H3 acetylation (AcH3) in SW48 cells; experiment: Western blot of histone H3 acetylation; assay type: cell-based, human; details: SW48, 24 h, FIG. 12c
Method: Human breast cancer MDA-MB-231 cells and human colorectal adenocarcinoma SW48 cells were analyzed. MDA-MB-231 and SW48 were obtained from Bioresource Collection and Research Center (BCRC, Taiwan). MDA-MB-231 and SW48 were grown at 37° C. under humidified air supplemented without CO2 in Leibovitz's L-15 (cat. #11415114, Thermo Fisher Scientific) containing 10% heat inactivated fetal calf serum (Thermo Scientific), 1× concentration of MycoZap antibiotics (cat. #VZA-2011, Lonza). Cells were treated with GNTbm compounds series, Chidamide or Entinostat for different time periods or at varied doses. Cells were treated with indicated doses for 24 h or cells were treated with indicated doses for different time periods. Cell pellets were dissolved with RIPA buffer (cat. #20-188, Merck) with protease and phosphatase inhibitors (cat. #K272, BioVision) and clarified by centrifugation. Equal amounts of total protein were resolved by SDS-PAGE and transferred to polyvinylidene fluoride membranes (cat. #1620177, BIO-RAD). Blots were incubated with primary antibodies against β-actin (cat. #sc-47778, Santa Cruz Biotechnology), Histone 3ac (cat. #61637, Active Motif), and HRP secondary antibodies anti-rabbit (ab6721, Abcam) and anti-mouse (sc-2005, Santa Cruz). Blots were developed using the ECL Western Blotting Substrate (cat. #sc-2048, Santa Cruz Biotechnology) Image blots were analyzed with the iBright FL1000 (Thermo Fisher Scientific) imaging systems.

NCI-N87 = experiment: In vitro cytotoxicity MTT assay; assay type: cell-based; details: Homo sapiens, 72 h, IC50 ± SD
Method: as §1

SW48 cells [5] = experiment: Cell cycle arrest by PI flow cytometry; assay type: cell-based, human; details: for Percentage of Cell Cycle Distribution G0/G1 / Percentage of Cell Cycle Distribution G2/M / Percentage of Cell Cycle Distribution S: 72 h; for Cell cycle arrest: SW48, doses of Table 12
Method: as §3

HDAC2, sequence (Q92769 whole entry): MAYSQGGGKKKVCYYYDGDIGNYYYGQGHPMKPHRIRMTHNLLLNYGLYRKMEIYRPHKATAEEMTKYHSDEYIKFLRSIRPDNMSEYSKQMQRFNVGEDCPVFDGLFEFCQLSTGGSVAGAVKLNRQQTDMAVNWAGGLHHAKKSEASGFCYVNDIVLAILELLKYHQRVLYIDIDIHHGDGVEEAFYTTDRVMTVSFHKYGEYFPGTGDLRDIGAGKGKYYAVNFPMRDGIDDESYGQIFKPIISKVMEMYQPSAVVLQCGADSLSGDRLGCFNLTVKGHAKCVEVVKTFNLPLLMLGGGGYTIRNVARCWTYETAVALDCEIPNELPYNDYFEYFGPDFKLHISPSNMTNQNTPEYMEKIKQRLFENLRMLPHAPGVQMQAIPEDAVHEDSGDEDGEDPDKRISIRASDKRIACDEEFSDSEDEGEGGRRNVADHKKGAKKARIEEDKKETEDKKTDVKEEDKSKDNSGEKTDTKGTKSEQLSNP
HDAC1, sequence (Q13547 whole entry): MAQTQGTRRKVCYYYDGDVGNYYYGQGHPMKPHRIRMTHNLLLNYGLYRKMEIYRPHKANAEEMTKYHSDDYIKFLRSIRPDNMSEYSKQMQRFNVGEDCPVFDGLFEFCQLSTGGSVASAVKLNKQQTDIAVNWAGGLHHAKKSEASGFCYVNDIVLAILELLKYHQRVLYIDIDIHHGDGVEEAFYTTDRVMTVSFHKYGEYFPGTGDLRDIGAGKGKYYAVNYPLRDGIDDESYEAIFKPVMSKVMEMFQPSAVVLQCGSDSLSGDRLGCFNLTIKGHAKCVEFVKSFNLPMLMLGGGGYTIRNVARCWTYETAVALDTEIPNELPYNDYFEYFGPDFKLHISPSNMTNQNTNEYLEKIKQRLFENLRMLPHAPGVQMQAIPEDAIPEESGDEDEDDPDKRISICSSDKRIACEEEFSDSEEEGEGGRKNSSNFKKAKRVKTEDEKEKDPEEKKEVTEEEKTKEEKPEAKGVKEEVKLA
T1 sequence (O15379 whole entry): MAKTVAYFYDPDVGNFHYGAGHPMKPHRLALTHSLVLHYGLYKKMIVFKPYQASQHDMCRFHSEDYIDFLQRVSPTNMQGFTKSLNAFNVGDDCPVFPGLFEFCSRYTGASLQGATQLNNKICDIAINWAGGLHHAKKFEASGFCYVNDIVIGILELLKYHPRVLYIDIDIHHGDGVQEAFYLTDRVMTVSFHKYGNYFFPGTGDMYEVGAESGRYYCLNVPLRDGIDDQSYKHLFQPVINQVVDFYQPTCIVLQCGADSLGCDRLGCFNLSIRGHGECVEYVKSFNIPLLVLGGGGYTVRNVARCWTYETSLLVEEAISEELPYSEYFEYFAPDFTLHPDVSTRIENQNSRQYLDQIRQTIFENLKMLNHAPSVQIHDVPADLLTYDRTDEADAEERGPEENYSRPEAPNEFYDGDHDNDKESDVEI
T1 sequence (Q9Y618 395-489 partner): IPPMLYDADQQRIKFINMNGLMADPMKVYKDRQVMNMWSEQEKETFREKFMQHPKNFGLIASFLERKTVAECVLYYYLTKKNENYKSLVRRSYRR

IC50 (HDAC3 [2])	IC50 (HDAC2)	IC50 (HDAC1)	Structure (SMILES)	IC50 (MDA-MB-453)	IC50 (MDA-MB-231)	IC50 (M10)	IC50 (SW48)	Percentages of Cell Apoptosis (SW48 cells [3]; SW48, 0.125 μM)	Percentages of Cell Apoptosis (SW48 cells [3]; SW48, 0.5 μM)	Percentages of Cell Apoptosis (SW48 cells [3]; SW48, 1 μM)	Percentages of Cell Apoptosis (SW48 cells [3]; SW48, 2 μM)	Induction of apoptosis (SW48 cells [3])	Histone 3 acetylation expression versus Chidamide [4]	IC50 (NCI-N87)	Percentage of Cell Cycle Distribution G0/G1 (SW48 cells [5]; SW48, 0.125 μM)	Percentage of Cell Cycle Distribution G2/M (SW48 cells [5]; SW48, 0.125 μM)	Percentage of Cell Cycle Distribution S (SW48 cells [5]; SW48, 0.125 μM)	Percentage of Cell Cycle Distribution G0/G1 (SW48 cells [5]; SW48, 0.5 μM)	Percentage of Cell Cycle Distribution G2/M (SW48 cells [5]; SW48, 0.5 μM)	Percentage of Cell Cycle Distribution S (SW48 cells [5]; SW48, 0.5 μM)	further results
670 ± 60 nM	510 ± 50 nM	560 ± 40 nM	Cc1ccc(/C=C/CC(=O)Nc2ccc(C(=O)Nc3ccc(F)cc3N)cc2)cn1 [GNTbm-03, 4-((E)-4-(6-methylpyridin-3-yl)but-3-enamido)-N-(2-amino-4-fluorophenyl)benzamide]	1810 ± 8 nM	26700 ± 5800 nM	6100 ± 134 nM	5260 ± 900 nM														Inhibition of HDAC 3 enzyme activities (kinetics) (HDAC3 [1]): stronger inhibition of HDAC 3 enzyme activities than GNTbm-01; Saturation Solubility (Saturation solubility; 90 minutes): BDL; IC50 (SK-BR-3): 4070 ± 680 nM
200 ± 100 nM	540 ± 7 nM	380 ± 40 nM	Nc1cc(F)ccc1NC(=O)c1ccc(NC(=O)C/C=C/c2cccnc2)cn1 [GNTbm-04, 5-((E)-4-(pyridin-3-yl)but-3-enamido)-N-(2-amino-4-fluorophenyl)pyridine-2-carboxamide]	1590 ± 3 nM	1640 ± 4 nM	1810 ± 60 nM	600 ± 90 nM	2.9%	10.8%	20.8%	32%	potent in inducing apoptosis in SW48 cells	more potent in inducing the histone 3 acetylation expression in SW48 cells than Chidamide	340 ± 40 nM	56.9%	25.2%	17.9%	63.2%	19.3%	17.5%	solubility at 90 min (Saturation solubility; water, thermodynamic from solid): 7.2 µg/mL (≈ 18.4 µM); Percentage of Cell Cycle Distribution G0/G1 (SW48 cells [5]; SW48, 1 μM): 67.2%; Percentage of Cell Cycle Distribution G2/M (SW48 cells [5]; SW48, 1 μM): 18.9%; Percentage of Cell Cycle Distribution S (SW48 cells [5]; SW48, 1 μM): 13.9%; Percentage of Cell Cycle Distribution G0/G1 (SW48 cells [5]; SW48, 2 μM): 70.5%; Percentage of Cell Cycle Distribution G2/M (SW48 cells [5]; SW48, 2 μM): 18.7%; Percentage of Cell Cycle Distribution S (SW48 cells [5]; SW48, 2 μM): 10.8%; Cell cycle arrest (SW48 cells [5]): significant induced cell cycle arrest in G0/G1 phase in SW48 cells
890 ± 130 nM	680 ± 30 nM	3700 ± 40 nM	Nc1cc(F)ccc1NC(=O)c1ccc(NC(=O)C/C=C/c2cccnc2)cc1 [GNTbm-39, 4-((E)-4-(pyridin-3-yl)but-3-enamido)-N-(2-amino-4-fluorophenyl)benzamide]	1840 ± 20 nM	2930 ± 450 nM	1960 ± 20 nM	1730 ± 10 nM	9.5%	17.8%	25.4%	37.8%	potent in inducing apoptosis in SW48 cells	more potent in inducing the histone 3 acetylation expression in SW48 cells than Chidamide	640 ± 30 nM	57.2%	22.3%	20.5%	58.8%	24.7%	16.5%	Percentage of Cell Cycle Distribution G0/G1 (SW48 cells [5]; SW48, 1 μM): 46.5%; Percentage of Cell Cycle Distribution G2/M (SW48 cells [5]; SW48, 1 μM): 32.8%; Percentage of Cell Cycle Distribution S (SW48 cells [5]; SW48, 1 μM): 20.7%; Percentage of Cell Cycle Distribution G0/G1 (SW48 cells [5]; SW48, 2 μM): 42.3%; Percentage of Cell Cycle Distribution G2/M (SW48 cells [5]; SW48, 2 μM): 38.9%; Percentage of Cell Cycle Distribution S (SW48 cells [5]; SW48, 2 μM): 18.8%; Cell cycle arrest (SW48 cells [5]): significantly induced cell cycle arrest in the G2/M phase in SW48 cells
